Drawing on DBAASP, this text covers MIC for 14 compounds.

Usually MIC stands for the least concentration at which growth counts as inhibited. A low value points to greater potency.

Values after ≈ are worked out from the molar mass of the structure shown. Bounds are passed on as bounds.

Among the test systems are Escherichia coli BW25113; Bacillus subtilis; Escherichia coli ML-35p; Streptococcus mutans; Bacillus subtilis 168; Escherichia coli B; Pseudomonas aeruginosa; Staphylococcus aureus.
Holding throughout (assay): ≥ marks a high value that may be exact or a test limit, other limits are often not marked, values filed in µg/mL are converted to µM
For assay [1], the system named is Candida albicans ATCC 2002.
The test system of assay [2] is Pseudomonas aeruginosa ATCC 27853.
The subject of assay [3] is Pseudomonas aeruginosa PAO1.
The test system of assay [4] is Staphylococcus aureus ATCC 2592.
Assay [5] relates to Staphylococcus aureus ATCC 43300.
Assay [6] concerns Staphylococcus aureus ATCC 25923.
The test system of assay [7] is Corynebacterium glutamicum ATCC 13032.
Assay [8] deals with Escherichia coli ATCC 25922.
For assay [9], the system named is Staphylococcus aureus ATCC 9144.
In assay [10] the test system is Staphylococcus aureus ATCC BAA-1556.

For `CC[C@H](C)[C@H](NC(=O)[C@@H]1CCCN1C(=O)[C@@H]1CCCN1C(=O)[C@H](CCCN=C(N)N)NC(=O)[C@H](Cc1ccccc1)NC(=O)[C@@H](N)CCCN=C(N)N)C(=O)N[C@@H](CCCN=C(N)N)C(=O)N[C@@H](CCCN=C(N)N)C(=O)N1CCC[C@H]1C(=O)N1CCC[C@H]1C(=O)N[C@H](C(=O)N[C@@H](CCCN=C(N)N)C(=O)N1CCC[C@H]1C(=O)N1CCC[C@H]1C(=O)N[C@@H](Cc1c[nH]c2ccccc12)C(=O)N[C@@H](Cc1ccc(O)cc1)C(=O)N1CCC[C@H]1C(=O)O)[C@@H](C)CC` [RFRPPIRRPPIRPPWYP], in the assay with Escherichia coli BW25113, the MIC was ≥ 32 µM.
Turning to `CSCC[C@H](NC(=O)[C@H](CO)NC(=O)[C@H](CO)NC(=O)[C@H](CC(C)C)NC(=O)[C@H](C)NC(=O)CNC(=O)[C@H](Cc1ccccc1)NC(=O)[C@H](CC(C)C)NC(=O)[C@H](CC(C)C)NC(=O)[C@@H]1CCCN1C(=O)[C@H](Cc1ccccc1)NC(=O)[C@@H](N)Cc1ccccc1)C(=O)N[C@@H](CCSC)C(=O)N1CCC[C@H]1C(=O)N[C@@H](CCCCN)C(=O)N[C@@H](CC(C)C)C(=O)N[C@@H](Cc1ccccc1)C(N)=O` [FFPLLFGALSSMMPKLF], the MIC against Bacillus subtilis is 7.71 µM (≈ 15 µg/mL); in assay [1] it was 2.57 µM (≈ 5 µg/mL); against Escherichia coli ML-35p it was 15.4 µM (≈ 30 µg/mL); in assay [2] it was 1.28 µM (≈ 2.5 µg/mL); in [3], 1.28 µM (≈ 2.5 µg/mL); in [4], 1.28 µM (≈ 2.5 µg/mL). Moreover, in assay [5], the minimal inhibitory concentration (MIC) is 1.28 µM (≈ 2.5 µg/mL).
On to `CC[C@H](C)[C@H](NC(=O)[C@@H]1CCCN1C(=O)[C@H](CCCN=C(N)N)NC(=O)[C@H](CCCN=C(N)N)NC(=O)[C@H](Cc1c[nH]c2ccccc12)NC(=O)[C@@H](N)CCCN=C(N)N)C(=O)N[C@@H](CCCN=C(N)N)C(=O)N[C@@H](CCCN=C(N)N)C(=O)N[C@@H](CCCN=C(N)N)C(=O)N1CCC[C@H]1C(=O)N[C@H](C(=O)N[C@@H](CCCN=C(N)N)C(=O)N1CCC[C@H]1C(=O)N1CCC[C@H]1C(=O)N[C@@H](Cc1c[nH]c2ccccc12)C(=O)N[C@@H](Cc1ccc(O)cc1)C(=O)N[C@@H](CCCN=C(N)N)C(=O)O)[C@@H](C)CC` [RWRRPIRRRPIRPPWYR], for which the MIC in the assay on Escherichia coli BW25113 was 8 µM (≈ 19.3 µg/mL).
On to `CC[C@H](C)[C@H](NC(=O)[C@@H]1CCCN1C(=O)[C@H](CCCN=C(N)N)NC(=O)[C@H](CCCN=C(N)N)NC(=O)[C@H](CCCN=C(N)N)NC(=O)[C@@H](N)CCCN=C(N)N)C(=O)N[C@@H](CCCN=C(N)N)C(=O)N[C@@H](CCCN=C(N)N)C(=O)N[C@@H](CCCN=C(N)N)C(=O)N1CCC[C@H]1C(=O)N[C@H](C(=O)N[C@@H](CCCN=C(N)N)C(=O)N1CCC[C@H]1C(=O)N1CCC[C@H]1C(=O)N[C@@H](Cc1ccccc1)C(=O)N[C@@H](Cc1ccc(O)cc1)C(=O)N[C@@H](CCCN=C(N)N)C(=O)O)[C@@H](C)CC` [RRRRPIRRRPIRPPFYR], for which, in the assay on Escherichia coli BW25113, the minimal inhibitory concentration (MIC) amounted to 16 µM (≈ 37.6 µg/mL).
For `CC[C@H](C)[C@H](NC(=O)[C@@H]1CCCN1C(=O)[C@H](Cc1c[nH]c2ccccc12)NC(=O)[C@H](CCCN=C(N)N)NC(=O)[C@H](Cc1ccccc1)NC(=O)[C@@H](N)CCCN=C(N)N)C(=O)N[C@@H](CCCN=C(N)N)C(=O)N[C@@H](CCCN=C(N)N)C(=O)N1CCC[C@H]1C(=O)N1CCC[C@H]1C(=O)N[C@H](C(=O)N[C@@H](CCCN=C(N)N)C(=O)N1CCC[C@H]1C(=O)N1CCC[C@H]1C(=O)N[C@@H](Cc1ccccc1)C(=O)N[C@@H](Cc1ccc(O)cc1)C(=O)N1CCC[C@H]1C(=O)O)[C@@H](C)CC` [RFRWPIRRPPIRPPFYP], the MIC with Escherichia coli BW25113 turned out to be 8 µM (≈ 18 µg/mL).
`NC(=O)[C@H](Cc1ccccc1)NC(=O)[C@H](Cc1c[nH]c2ccccc12)NC(=O)[C@H](Cc1c[nH]c2ccccc12)NC(=O)[C@H](Cc1c[nH]c2ccccc12)NC(=O)[C@H](CCCN=C(N)N)NC(=O)[C@H](CCCN=C(N)N)NC(=O)[C@H](CCCN=C(N)N)NC(=O)CNC(=O)CNC(=O)CNC(=O)[C@H](Cc1ccccc1)NC(=O)[C@H](Cc1c[nH]c2ccccc12)NC(=O)[C@H](Cc1c[nH]c2ccccc12)NC(=O)[C@H](Cc1c[nH]c2ccccc12)NC(=O)[C@H](CCCN=C(N)N)NC(=O)[C@H](CCCN=C(N)N)NC(=O)[C@@H](N)CCCN=C(N)N` [RRRWWWFGGGRRRWWWF] came in with an MIC with Streptococcus mutans of 6.3 µM (≈ 16 µg/mL).
Same read-out and setting: as for `NCCCC[C@H](NC(=O)[C@H](Cc1c[nH]c2ccccc12)NC(=O)[C@H](CCCN=C(N)N)NC(=O)[C@H](Cc1c[nH]c2ccccc12)NC(=O)[C@H](CCCN=C(N)N)NC(=O)[C@H](Cc1c[nH]c2ccccc12)NC(=O)[C@@H](N)CCCN=C(N)N)C(=O)O` [RWRWRWK], the figure is 27.3 µM (≈ 32 µg/mL).
Regarding `CC[C@H](C)[C@H](NC(=O)CNC(=O)[C@@H](NC(=O)[C@H](C)NC(=O)[C@@H](NC(=O)[C@H](CCCCN)NC(=O)[C@@H](NC(=O)[C@@H](NC(=O)[C@@H]1CCCN1C(=O)CNC(=O)[C@H](CC(C)C)NC(=O)[C@@H](N)Cc1ccccc1)[C@@H](C)CC)[C@@H](C)CC)[C@@H](C)CC)[C@@H](C)O)C(=O)N[C@@H](CC(C)C)C(=O)N1CCC[C@H]1C(=O)N[C@H](C(=O)N[C@@H](C)C(=O)N[C@H](C(=O)N[C@H]1CSSC[C@@H](C(=O)O)NC(=O)[C@H](CCCCN)NC(=O)[C@H](CCCCN)NC(=O)[C@H](CC(C)C)NC(=O)[C@H](Cc2ccccc2)NC(=O)[C@H](CCCCN)NC1=O)[C@@H](C)CC)[C@@H](C)O` [FLGPIIKIATGILPTAICKFLKKC], the minimum inhibitory concentration (MIC) against Bacillus subtilis was 1.81 µM (≈ 4.69 µg/mL); in assay [1] it was 1.81 µM (≈ 4.69 µg/mL); in the assay on Escherichia coli ML-35p, 14.5 µM (≈ 37.5 µg/mL); in [6], 1.45 µM (≈ 3.75 µg/mL); in assay [5], 24.1 µM (≈ 62.5 µg/mL).
As to `CC[C@H](C)[C@H](NC(=O)[C@H](CCCCN)NC(=O)[C@H](CC(=O)O)NC(=O)[C@H](CC(C)C)NC(=O)[C@@H](NC(=O)[C@H](CC(N)=O)NC(=O)[C@H](CCC(N)=O)NC(=O)[C@@H](NC(=O)[C@H](Cc1ccccc1)NC(=O)CNC(=O)[C@H](CCCCN)NC(=O)CNC(=O)[C@H](C)NC(=O)[C@H](CC(N)=O)NC(=O)[C@H](CCCCN)NC(=O)[C@@H](NC(=O)[C@@H](NC(=O)[C@H](CCC(=O)O)NC(=O)[C@H](Cc1c[nH]c2ccccc12)NC(=O)[C@H](CC(C)C)NC(=O)[C@@H](N)CO)[C@@H](C)O)[C@@H](C)CC)[C@@H](C)CC)[C@@H](C)CC)C(=O)N[C@@H](CCCN=C(N)N)C(=O)O` [SLWETIKNAGKGFIQNILDKIR], the minimum inhibitory concentration (MIC) was 8.6 µM (≈ 21.9 µg/mL) against Bacillus subtilis, 12.9 µM (≈ 32.7 µg/mL) in assay [1], 14.7 µM (≈ 37.5 µg/mL) in the assay on Escherichia coli ML-35p and 3.69 µM (≈ 9.38 µg/mL) in assay [6].
`CC(C)[C@H](NC(=O)[C@H](CCCCN)NC(=O)[C@H](C)NC(=O)[C@@H](NC(=O)[C@@H](NC(=O)[C@H](CCCN=C(N)N)NC(=O)[C@H](CCCN=C(N)N)NC(=O)[C@H](Cc1c[nH]c2ccccc12)NC(=O)[C@H](Cc1c[nH]c2ccccc12)NC(=O)CN)[C@@H](C)O)C(C)C)C(=O)N[C@@H](CCCN=C(N)N)C(=O)N[C@@H](CC(N)=O)C(N)=O` [GWWRRTVAKVRN]: the MIC in assay [7] is 1.6 µM (≈ 2.44 µg/mL); in assay [8], 6.3 µM (≈ 9.63 µg/mL); in assay [2], 6.3 µM (≈ 9.63 µg/mL); in [9], ≥ 50 µM.
For `CC(C)C[C@H](NC(=O)[C@H](Cc1c[nH]c2ccccc12)NC(=O)[C@H](CC(C)C)NC(=O)[C@H](CC(C)C)NC(=O)[C@H](Cc1c[nH]c2ccccc12)NC(=O)[C@H](Cc1c[nH]c2ccccc12)NC(=O)[C@H](CC(C)C)NC(=O)[C@H](Cc1c[nH]c2ccccc12)NC(=O)[C@@H](N)Cc1c[nH]c2ccccc12)C(N)=O` [WWLWWLLWL], the minimum inhibitory concentration (MIC) in [10] is ≥ 100 µM.
In the case of `CC[C@H](C)[C@H](NC(=O)[C@H](CO)NC(=O)[C@H](CC(C)C)NC(=O)[C@H](Cc1ccccc1)NC(=O)CN)C(=O)N[C@@H](CC(C)C)C(=O)N[C@@H](CCCCN)C(=O)N[C@@H](CCCCN)C(=O)N[C@H](C(=O)N[C@@H](CC(C)C)C(N)=O)C(C)C` [GFLSILKKVL], the MIC in the assay with Bacillus subtilis 168 was found to be 2.9 µM (≈ 3.24 µg/mL); in the assay on Escherichia coli B it was 9.1 µM (≈ 10.2 µg/mL); with Pseudomonas aeruginosa, 59 µM (≈ 65.9 µg/mL); in the assay on Staphylococcus aureus, 10.9 µM (≈ 12.2 µg/mL).
`CC(C)C[C@H](NC(=O)[C@H](Cc1cnc[nH]1)NC(=O)[C@H](CCCCN)NC(=O)[C@H](Cc1c[nH]c2ccccc12)NC(=O)[C@H](CCCN=C(N)N)NC(=O)[C@H](CCCCN)NC(=O)[C@H](Cc1ccccc1)NC(=O)[C@H](CC(C)C)NC(=O)[C@@H](N)CCCCN)C(=O)N[C@@H](Cc1ccccc1)C(=O)N[C@@H](CCCN=C(N)N)C(=O)O` [KLFKRWKHLFR]: the MIC against Streptococcus mutans is ≥ 40.1 µM.
In the case of `CC(C)C[C@H](NC(=O)[C@H](CC(C)C)NC(=O)[C@H](CC(C)C)NC(=O)[C@H](CCCCN)NC(=O)[C@H](CCCCN)NC(=O)[C@H](CC(C)C)NC(=O)[C@H](CC(C)C)NC(=O)[C@H](CC(C)C)NC(=O)[C@@H](N)CC(C)C)C(N)=O` [LLLLKKLLL], the minimal inhibitory concentration (MIC) in [10] was ≥ 100 µM.
